Experiment: xn = mol fraction of the nth substance listed, in the solute-free solvent

Cc1ncc(C[n+]2csc(CCO)c2C)c(N)n1.O=[N+]([O-])[O-] + O + CC(C)O
solubility (g/100 g solution)
Settings	278.15 K	283.15 K	288.15 K	293.15 K	298.15 K	303.15 K	308.15 K	313.15 K
x2 = 0.3	0.0345	0.0413	0.051	0.06	0.0744	0.093	0.115	0.151
x2 = 0.4	0.0937	0.119	0.15	0.172	0.199	0.243	0.297	0.385
x2 = 0.5	0.228	0.257	0.305	0.372	0.453	0.573	0.715	0.897
x2 = 0.6	0.364	0.439	0.552	0.705	0.814	1.01	1.28	1.57
x2 = 0.7	0.637	0.765	0.916	1.12	1.38	1.71	2.11	2.61
x2 = 0.8	0.968	1.15	1.39	1.74	2.15	2.63	3.14	3.84
x2 = 0.9	1.18	1.47	1.83	2.33	2.85	3.48	4.26	5.2

CCC(C)n1ncn(-c2ccc(N3CCN(c4ccc(OCC5COC(Cn6cncn6)(c6ccc(Cl)cc6Cl)O5)cc4)CC3)cc2)c1=O (stereo not drawn) + ClC(Cl)Cl + CCO
solubility (g/100 g solution)
Settings	x2 = 0.04158	x2 = 0.08894	x2 = 0.1434	x2 = 0.2065	x2 = 0.2808	x2 = 0.3694	x2 = 0.4767	x2 = 0.6097	x2 = 0.7785
288.15 K	0.0692	0.133	0.268	0.494	1.05	3.89	10.7	19.4	26.1
293.15 K	0.0835	0.16	0.32	0.565	1.38	4.82	12	20.6	26.9
298.15 K	0.0993	0.189	0.375	0.644	1.77	6	13.4	21.8	27.8
303.15 K	0.117	0.225	0.442	0.733	2.24	7.3	14.8	23	28.7
308.15 K	0.138	0.267	0.516	0.832	2.82	8.83	16.4	24.2	29.5

Nc1ccc(Oc2ccc(N)cc2)cc1 + CS(C)=O + CCO
solubility (g/100 g solution)
Settings	293.15 K	298.15 K	303.15 K	308.15 K	313.15 K	318.15 K	323.15 K	328.15 K	333.15 K
x2 = 0.06154	0.705	0.952	1.2	1.28	1.56	1.81	2.13	2.45	2.97
x2 = 0.1286	1.54	1.73	2.16	2.39	2.54	3.27	3.57	4.14	4.81
x2 = 0.2019	2.84	3.16	3.74	4.14	4.64	5.35	5.87	6.46	7.63
x2 = 0.2824	5.08	5.51	6.34	6.77	7.36	8.3	9.1	10.2	11.8
x2 = 0.3711	8.32	8.84	9.8	10.4	11.4	12.3	13.3	14.7	16.3
x2 = 0.4696	12.3	13.1	14.1	15	16	17.2	18.2	19.7	21.4
x2 = 0.5793	17	18.3	19.1	20.1	21	22.4	23.4	24.9	26.6
x2 = 0.7024	22	23.1	24	24.9	25.9	26.9	28.1	29.7	31.3
x2 = 0.8416	26.8	27.7	28.6	29.6	30.2	31.6	32.7	34.1	35.7

CCC(C)n1ncn(-c2ccc(N3CCN(c4ccc(OCC5COC(Cn6cncn6)(c6ccc(Cl)cc6Cl)O5)cc4)CC3)cc2)c1=O (stereo not drawn) + ClCCl + CCCO
solubility (g/100 g solution)
Settings	x2 = 0.07363	x2 = 0.1517	x2 = 0.2346	x2 = 0.3229	x2 = 0.417	x2 = 0.5176	x2 = 0.6254	x2 = 0.741	x2 = 0.8656
288.15 K	0.0545	0.15	0.459	1.65	3.95	8.85	14.4	19.5	21.8
293.15 K	0.0662	0.199	0.602	2.05	4.66	9.92	15.7	20.8	22.9
298.15 K	0.0798	0.258	0.786	2.52	5.51	11.1	17	22	24
303.15 K	0.0965	0.332	0.996	3.08	6.4	12.3	18.3	23.3	25.1
308.15 K	0.115	0.424	1.27	3.71	7.42	13.6	19.7	24.6	26.2

CC(C)=CCCC(C)C1CCC2(C)C3=C(CCC12C)C1(C)CCC(O)C(C)(C)C1CC3 (stereo not drawn) + CCO + O
solubility (g/100 g solution)
Settings	278.15 K	288.15 K	298.15 K	308.15 K	318.15 K
x2 = 0.01604	3.88e-05	6.47e-05	0.000106	0.000176	0.000263
x2 = 0.1154	0.000122	0.000181	0.000283	0.000357	0.000444
x2 = 0.3147	0.000276	0.000461	0.000699	0.00134	0.00191
x2 = 0.7415	0.245	0.366	0.512	0.754	0.839

CC(C)=CCCC(C)C1CCC2(C)C3=C(CCC12C)C1(C)CCC(O)C(C)(C)C1CC3 (stereo not drawn) + CC(C)O + O
solubility (g/100 g solution)
Settings	278.15 K	288.15 K	298.15 K	308.15 K	318.15 K
x2 = 0.01234	2.03e-05	2.81e-05	3.2e-05	3.94e-05	5.13e-05
x2 = 0.09088	0.000156	0.000176	0.000221	0.00024	0.000254
x2 = 0.2604	0.0158	0.0209	0.0306	0.0368	0.0456
x2 = 0.6874	0.147	0.272	0.373	0.472	0.64

Cc1[nH]c(=O)c(C#N)cc1-c1ccncc1 + CCO + O
solubility (g/100 g solution)
Settings	278.15 K	283.15 K	288.15 K	293.15 K	298.15 K	303.15 K	308.15 K	313.15 K	318.15 K	323.15 K
x2 = 0.04165	0.000675	0.000813	0.000966	0.00114	0.00133	0.00153	0.00174	0.00198	0.00224	0.00254
x2 = 0.08908	0.000855	0.00103	0.00123	0.00144	0.00169	0.00194	0.00221	0.00251	0.00285	0.00321
x2 = 0.1436	0.00114	0.00138	0.00163	0.00192	0.00225	0.00258	0.00294	0.00333	0.00377	0.00426
x2 = 0.2068	0.00154	0.00186	0.00221	0.00259	0.00303	0.00348	0.00395	0.00447	0.00505	0.0057
x2 = 0.2812	0.00206	0.00239	0.00288	0.00338	0.0039	0.00453	0.00517	0.00586	0.00662	0.00754
x2 = 0.3698	0.00266	0.00322	0.00381	0.00446	0.00518	0.00596	0.00676	0.00763	0.0086	0.00968
x2 = 0.4772	0.00326	0.00385	0.00461	0.0054	0.00629	0.00717	0.00815	0.00921	0.0105	0.0119
x2 = 0.6101	0.00373	0.00451	0.0054	0.00637	0.00745	0.00844	0.00959	0.0108	0.0122	0.0138
x2 = 0.7788	0.00412	0.00503	0.00602	0.00705	0.00817	0.00928	0.0105	0.0119	0.0135	0.0153

S=c1[nH]ncs1 + CCO + O
solubility (g/100 g solution)
Settings	278.15 K	283.15 K	288.15 K	293.15 K	298.15 K	303.15 K	308.15 K	313.15 K	318.15 K	323.15 K
x2 = 0.1	0.653	0.91	1.26	1.71	2.24	2.97	3.91	5.01	6.49	7.94
x2 = 0.2	1.93	2.6	3.27	4.16	5.3	6.67	8.34	10.5	12.8	15.2
x2 = 0.3	3.54	4.46	5.7	7.08	8.6	10.7	12.9	15.5	18.5	21.9
x2 = 0.4	5.21	6.58	8.06	9.53	11.3	13.6	16.1	18.9	22.3	26
x2 = 0.5	6.64	8	9.61	11.3	13.3	15.6	18.1	21.1	24.5	28.1
x2 = 0.6	7.53	8.92	10.7	12.4	14.4	16.5	19.2	22.3	25.4	28.5
x2 = 0.7	8.26	9.5	11.2	13.1	15	17.1	19.5	22.4	25.4	28
x2 = 0.8	8.41	10.1	11.6	13.3	15	17.2	19.5	22.1	25	27.6
x2 = 0.9	8.73	10.2	11.8	13.3	15.1	16.9	19.1	21.6	23.9	26.6

OCCN(CCO)c1nc(N2CCCCC2)c2nc(N(CCO)CCO)nc(N3CCCCC3)c2n1 + CCO + O
solubility (g/100 g solution)
Settings	293.15 K	298.15 K	303.15 K	308.15 K	313.15 K	318.15 K	323.15 K	328.15 K
x2 = 0.3	1.64	1.81	2.52	3.79	5.33	8.14	12.5	18
x2 = 0.4	2.59	3.74	5.59	7.99	10.8	16	22.2	29.9
x2 = 0.5	4.37	6.13	8.44	11.4	15.2	20.7	28.1	36.2
x2 = 0.6	5.48	7.13	9.58	13.1	16.6	22.2	29.3	37
x2 = 0.7	5.8	7.49	9.93	13.1	16.7	21.9	28.4	35.8
x2 = 0.8	5.06	6.52	8.76	11.6	14.9	19.3	25.6	32.2
x2 = 0.9	4.28	5.36	7.23	9.43	11.7	15.1	20.7	26.7
